{
  "source": "patent US20080280837A1",
  "about": "“Biologically Active Compounds with Anti-Angiogenic Properties” (priority 2004, published 2008)",
  "key": {"[1]": {"assay": "In vivo pharmacokinetic evaluation after i.v. and p.o. administration to rats", "set-up": "species or system rat", "conditions": "for clearance: read-out: Cltotal (total plasma clearance); for Vd: read-out: VdB (volume of distribution during the elimination phase); for bioavailability: calculated using AUC0-480, read-out: BA (oral bioavailability)", "description": "Intravenous infusion of “compound 1” (2 mg/Kg) over 5 minutes to two rats and arterial blood sampled up to 24 hours.\nOral administration of “compound 1” (25 mg/Kg as HPMC suspension) via oral gavage to two rats and arterial blood sampled up to 24 hours.\nPlasma concentrations of “compound 1” determined by MS (LOQ<0.01 μM)\nCLtotal=total plasma clearance after IV administration Vdβ=volume of distribution during the elimination phase after IV administration BA=oral bioavailability AUCIV=area under the plasma concentration versus time profile from time zero to infinity after IV administration AUCoral=area under the plasma concentration versus time profile from time zero to infinity after oral administration β=terminal elimination rate constant after IV administration"}, "[2]": {"assay": "In vivo pharmacokinetic evaluation after i.v. and p.o. administration to rats", "conditions": "rat, plasma, po, 25 mg/Kg, Rat 3, PO; calculated using AUC0-480; read-out: BA (oral bioavailability)"}, "[3]": {"conditions": "rat, plasma, iv, 2 mg/Kg, IV, Mean ± SD of two rats"}, "[4]": {"conditions": "rat, plasma, iv, 2 mg/Kg, Rat 1, IV"}, "[5]": {"conditions": "rat, plasma, iv, 2 mg/Kg, Rat 2, IV"}},
  "note": "Where two headings read alike, the source gives them in different places.",
  "data": [
    {"smiles": "COC[C@H]1O[C@H](OCCc2ccccc2)[C@H](NC(=O)CCCN)[C@@H](OCc2ccc3ccccc3c2)[C@@H]1O", "note": "[Compound 1]", "values": [
      {"measurement": "VdB (volume of distribution during the elimination phase)", "setting": "[1]; IV, Mean ± SD of two rats", "result": "3.29 ± 0.56", "unit": "L/kg"},
      {"measurement": "Tmax", "setting": "[1]; Rat 4, PO 25 mg/Kg", "result": 0.333, "unit": "h"},
      {"measurement": "Tmax", "setting": "[1]; plasma, Rat 3, PO 25 mg/Kg, read-out: Tmax (converted)", "result": 0.333, "unit": "h"},
      {"measurement": "Tmax", "setting": "[1]; rat, plasma, 25 mg/Kg, PO, mean of two rats, read-out: Tmax (converted)", "result": 0.333, "unit": "h"},
      {"measurement": "clearance", "setting": "[1]; [3]", "result": 0.492, "unit": "L/h/kg"},
      {"measurement": "Vd", "setting": "[1]; [3]", "result": 3.3, "unit": "L/kg"},
      {"measurement": "half-life", "setting": "[1]; rat, plasma, iv, 2 mg/Kg, IV, Mean ± SD of two rats, read-out: t1/2 (elimination half-life) (converted)", "result": "~4.6", "unit": "h"},
      {"measurement": "Cmax", "setting": "[1]; rat, plasma, iv, 2 mg/Kg, Mean ± SD of two rats", "result": "31.9 ± 2.27", "unit": "µM"},
      {"measurement": "Cmax", "setting": "[1]; rat, plasma, iv, 2 mg/Kg, Rat 1, IV infusion 2 mg/Kg over 5 minutes", "result": 30.3, "unit": "µM"},
      {"measurement": "clearance", "setting": "[1]; [4]", "result": 0.452, "unit": "L/h/kg"},
      {"measurement": "Vd", "setting": "[1]; [4]", "result": 2.9, "unit": "L/kg"},
      {"measurement": "half-life", "setting": "[1]; rat, plasma, iv, 2 mg/Kg, Rat 1, IV, read-out: t1/2 (converted)", "result": 4.45, "unit": "h"},
      {"measurement": "Cmax", "setting": "[1]; rat, plasma, iv, 2 mg/Kg, Rat 2, IV infusion 2 mg/Kg over 5 minutes", "result": 33.5, "unit": "µM"},
      {"measurement": "clearance", "setting": "[1]; [5]", "result": 0.532, "unit": "L/h/kg"},
      {"measurement": "Vd", "setting": "[1]; [5]", "result": 3.69, "unit": "L/kg"},
      {"measurement": "half-life", "setting": "[1]; rat, plasma, iv, 2 mg/Kg, Rat 2, IV, read-out: t1/2 (converted)", "result": 4.76, "unit": "h"},
      {"measurement": "Cmax", "setting": "[1]; rat, plasma, po, 25 mg/Kg, Mean ± SD of two rats", "result": "4.95 ± 2.84", "unit": "µM"},
      {"measurement": "bioavailability", "setting": "[1]; rat, plasma, po, 25 mg/Kg, PO, Mean ± SD of two rats", "result": "~5.2", "unit": "%"},
      {"measurement": "bioavailability", "setting": "[1]; rat, plasma, po, 25 mg/Kg, Rat 4, PO", "result": 5.38, "unit": "%"},
      {"measurement": "Cmax", "setting": "[1]; rat, plasma, po, 25 mg/kg, Rat 3, PO 25 mg/Kg HPMC suspension", "result": 6.95, "unit": "µM"},
      {"measurement": "Cmax", "setting": "[1]; rat, plasma, po, 25 mg/kg, Rat 4, PO 25 mg/Kg HPMC suspension", "result": 2.94, "unit": "µM"},
      {"measurement": "bioavailability", "setting": "[2]", "result": 4.95, "unit": "%"}
    ]}
  ]
}
